System: FoL (Fusarium wilt of tomato)
Experiment: Wilt incidence pot study in tomato (AUDPC)
Format: in vivo, Fusarium oxysporum
Details: @ 0.1%
Description: For wilt incidence study, seeds, seedlings and soil are treated with above mentioned three concentrations of microemulsion formulation. In brief, soil is autoclaved and artificially inoculated with Fusarium spores (@ 2.6×10^5 spores/g soil). Seeds are treated with microemulsion formulations by the method used for germination study, but herein, seeds are sowed directly into 1 kg diseased pot. For seedling treatment, healthy eight-leaf staged seedlings of tomato are treated with three respective concentrations of microemulsion while in case of soil treatment; soil of pot is treated @ 5 ml per 150 cc soil. Healthy and untreated seedlings are taken as control. Each treatment has 5 replicates and all the pots are kept in the net house in Micro model, IITD for 45 days. Carbendazim (@0.1%) is taken as chemical control. For accessing the disease progression in the tomato plant, following grading system is used. Symptoms like yellowing of leaves, wilting of plant, height and weight of plant are examined and given a grade by comparing with the control having maximum diseases infection.
Area under the disease progress curve (AUDPC) is a method to calculate the percentage inhibition of wilt disease and is calculated as:
AUDPC=Σ[(Ri+1+Ri)/2][ti+1−ti], R=disease rating at the ith observation ti=time (days) since previous ratings at the ith observation, n=total number of observations.

For COC(=O)Nc1nc2ccccc2[nH]1 [carbendazim, Carbendazim], the “Disease reduction % of FoL” value (Seedling treatment) was 60.02% and the “Disease reduction % of FoL” value (Soil treatment) was 71.24%.

From patent US20200281194A1, “A Novel Green Micro-Emulsion for Controlling Fungal Wilt Diseases” (priority 2017, published 2020)
